Measured values reported in patent US9855245B2, “Methods for improving lipid profiles using atrasentan” (AbbVie Inc., priority 2013, dated 2018).

Test system: subjects with type 2 diabetes and nephropathy
Test: Example 1: Phase 2b randomized, double-blind, placebo-controlled 12-week clinical study
[1] = 0.75 mg/day, baseline to final on-treatment measurement

Procedure: The primary efficacy endpoint was the change from baseline to Week 12 in log-transformed UACR with the primary analysis conducted using mixed-effects, maximum likelihood, repeated measures (MMRM) with fixed effects for treatment, country, visit, and treatment-by-visit interaction, with baseline measurement and baseline-by-visit interaction as covariates.
All safety analyses were performed on treatment-emergent adverse events only. Treatment-emergent adverse events were defined as those that first occurred or worsened on or after the date of first dose of study drug through 30 days after the last dose of study drug.

Compound: CCCCN(CCCC)C(=O)CN1C[C@H](c2ccc3c(c2)OCO3)[C@@H](C(=O)O)[C@@H]1c1ccc(OC)cc1 [Atrasentan, (2R,3R,4S)-4-(1,3-benzodioxol-5-yl)-1-[2-(dibutylamino)-2-oxoethyl]-2-(4-methoxyphenyl)pyrrolidine-3-carboxylic acid]
- Any adverse event (0.75 mg, N = 59): 37 (62.7) N (%) of Subjects
- Any adverse event leading to discontinuation of study drug (0.75 mg, N = 59): 5 (8.5) N (%) of Subjects
- Death (0.75 mg, N = 59): 0 N (%) of Subjects
- Fatal adverse event (0.75 mg, N = 59): 0 N (%) of Subjects
- Possibly or probably drug-related adverse event (0.75 mg, N = 59): 16 (27.1) N (%) of Subjects
- Serious adverse event (0.75 mg, N = 59): 4 (6.8) N (%) of Subjects
- Severe adverse event (0.75 mg, N = 59): 5 (8.5) N (%) of Subjects
- Cholesterol, Difference (95% CI) from placebo (0.75 mg/day): −14.1 (−28.65, 0.53) mg/dL
- Cholesterol, Final On-Treatment Visit Mean (SD) (0.75 mg/day): 148.9 (36.93) mg/dL
- Cholesterol, LS Mean Change from Baseline (SE) (0.75 mg/day): −13.0 (3.93) mg/dL
- HDL-C, Difference (95% CI) from placebo (0.75 mg/day): 0.2 (−3.68, 4.13) mg/dL
- HDL-C, Final On-Treatment Visit Mean (SD) (0.75 mg/day): 42.1 (12.06) mg/dL
- HDL-C, LS Mean Change from Baseline (SE) (0.75 mg/day): −2.2 (1.05) mg/dL
- Had ≧30% Reduction in UACR and No Edema (no moderate or severe adverse event of edema) (0.75 mg/day): 27 (47.4) Number (%) of Subjects
- Hemoglobin, Difference (95% CI) from placebo (0.75 mg/day): −0.94 (−1.423, −0.450) g/dL
- Hemoglobin, LS Mean Change from Baseline (SE) (0.75 mg/day): −0.97 (0.126) g/dL
- LDL-C, Difference (95% CI) from placebo (0.75 mg/day): −12.5 (−23.56, −1.41) mg/dL
- LDL-C, Final On-Treatment Visit Mean (SD) (0.75 mg/day): 71.4 (27.39) mg/dL
- LDL-C, LS Mean Change from Baseline (SE) (0.75 mg/day): −10.3 (3.01) mg/dL
- Percentage of Subjects with ≧30% Reduction in Log-Transformed UACR from Baseline to Final Measurement (0.75 mg/day): 50.9%
- Percentage of Subjects with ≧40% Reduction in Log-Transformed UACR from Baseline to Final Measurement (0.75 mg/day): 38.6%
- Percentage of Subjects with ≧50% Reduction in Log-Transformed UACR from Baseline to Final Measurement (0.75 mg/day): 29.8%
- Triglycerides, Difference (95% CI) from placebo (0.75 mg/day): −37.6 (−97.24, 22.01) mg/dL
- Triglycerides, Final On-Treatment Visit Mean (SD) (0.75 mg/day): 179.9 (101.27) mg/dL
- Triglycerides, LS Mean Change from Baseline (SE) (0.75 mg/day): −4.3 (16.05) mg/dL
- Weight, Difference (95% CI) from placebo (0.75 mg/day): −0.1 (−2.32, 2.07) kg
- Weight, Final On-Treatment Visit Mean (SD) (0.75 mg/day): 93.0 (21.28) kg
- decrease in weight at Week 12 (0.75 mg/day): 0.8 kg
- diastolic blood pressure, mean change from baseline to last on-treatment visit (0.75 mg/day): −1.49 mmHg
- direct effect on change in UACR (path analysis vs change in systolic blood pressure) (0.75 mg/day): 97.52%
- fatigue leading to discontinuation (0.75 mg/day): 1.7%
- geometric mean reduction in UACR, baseline to final on-treatment measurement (0.75 mg/day): 37.7%
- incidence of anemia (0.75 mg/day): 6.8%
- incidence of peripheral edema (0.75 mg/day): 32.2%
- mean changes in weight vs placebo (repeated-measures analysis) (0.75 mg/day): statistically significantly different from placebo only at Week 2
- mean diastolic blood pressure, difference from baseline (0.75 mg/day): statistically significant at Weeks 1, 4, and 6
- mean systolic blood pressure, difference from baseline (0.75 mg/day): statistically significant at Week 4
- peripheral edema leading to discontinuation (0.75 mg/day): 3.4%
- subjects discontinued because of an adverse event (0.75 mg/day): 5 subjects
- subjects discontinued prematurely from the study (0.75 mg/day): 13.6%
- subjects who discontinued study drug because of adverse events (0.75 mg/day): 8.5%
- subjects with adverse event infection (0.75 mg/day): 3.4%
- systolic blood pressure, mean change from baseline to last on-treatment visit (0.75 mg/day): −2.44 mmHg
- weight, mean change from baseline to last on-treatment visit (0.75 mg/day): -1.20 kg
- UACR Between-group Comparison Difference (90% CI) (0.75 mg/day vs placebo): −0.47 (−0.71, −0.22)
- Weight, LS Mean Change from Baseline (SE) (0.75 mg/day, Week 12): −0.8 (0.69) kg
- UACR Change from Baseline LS Mean (SE) [1]: −0.47 (0.12) log mg/g creatinine
- UACR Geometric Mean Change (Percent) [1]: −37.77%
- Any adverse event (1.25 mg, N = 64): 47 (73.4) N (%) of Subjects
- Any adverse event leading to discontinuation of study drug (1.25 mg, N = 64): 7 (10.9) N (%) of Subjects
- Death (1.25 mg, N = 64): 0 N (%) of Subjects
- Fatal adverse event (1.25 mg, N = 64): 0 N (%) of Subjects
- Possibly or probably drug-related adverse event (1.25 mg, N = 64): 27 (42.2) N (%) of Subjects
- Serious adverse event (1.25 mg, N = 64): 4 (6.3) N (%) of Subjects
- Severe adverse event (1.25 mg, N = 64): 1 (1.6) N (%) of Subjects
- Cholesterol, Difference (95% CI) from placebo (1.25 mg/day): −17.2 (−31.60, −2.88) mg/dL
- Cholesterol, Final On-Treatment Visit Mean (SD) (1.25 mg/day): 147.6 (33.53) mg/dL
- Cholesterol, LS Mean Change from Baseline (SE) (1.25 mg/day): −16.2 (3.75) mg/dL
- HDL-C, Difference (95% CI) from placebo (1.25 mg/day): 2.2 (−1.61, 6.08) mg/dL
- HDL-C, Final On-Treatment Visit Mean (SD) (1.25 mg/day): 43.4 (10.51) mg/dL
- HDL-C, LS Mean Change from Baseline (SE) (1.25 mg/day): −0.2 (1.00) mg/dL
